These results are taken from paper PMC2812908 (Letters in drug design & discovery, 2009).

For the experiment, the target named is Aβ(1–40) fibrils (Homo sapiens, UniProt P05067). As to the kind of experiment: radioligand displacement of [3H]Chrysamine-G, filtration assay. It counts as binding. (Loss of bound radioactivity is the signal in a displacement assay; it reports binding, not function.)
Chain of Aβ(1–40) fibrils (P05067 672-711): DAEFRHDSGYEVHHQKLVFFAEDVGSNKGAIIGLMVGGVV

The term Ki denotes a measure of affinity in units of concentration, obtained from inhibition or displacement. Low readings indicate tighter binding, high ones weaker binding. As to `O=C(O)c1cc(/C=C/C=C/c2ccc(/C=C/C=C/c3ccc(O)c(C(=O)O)c3)cc2)ccc1O` [X:EE:B34, 1,4-bis[(1E,3E)-4-(3’-carboxy-4’-hydroxyphenyl)-1,3-butadienyl]-benzene], affinity was put at a Ki of 0.13 nM.

As to `COc1cc(/C=C/c2ccc(/C=C/c3ccc(O)c(O)c3)cc2)ccc1O` [X:034-3-OMe1, (E,E)-1-(3’,4’-dihydroxystyryl)-4-(3’-methoxy-4’hydroxystyryl)benzene], the affinity, expressed as Ki, was 21 nM.
